Experimental data from US12195427B2, “MASP-2 inhibitors and methods of use” (priority 2018, dated 2025).
Structures can show the parent of a compound that is named as a salt.

Target: MASP-2 CCP2-SP (Homo sapiens (Human), UniProt O00187)
Assay: MASP-2 co-crystallization, X-ray crystallography and structure analysis (H-bonds, van der Waals contacts);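 as to Ligand-pharmacophore element distance, pharmacophore element C2: distance from averaged pharmacophore element to bound ligand; missing value means element absent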;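 as to Ligand-pharmacophore element distance, pharmacophore element C3: distance from averaged pharmacophore element to bound ligand; missing value means element absent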;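 as to Ligand-pharmacophore element distance, pharmacophore element C4: distance from averaged pharmacophore element to bound ligand; missing value means element absent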;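 as to Ligand-pharmacophore element distance, pharmacophore element C5: distance from averaged pharmacophore element to bound ligand; missing value means element absent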
Parameters: van der Waals contact distance, MASP-2 HIS 483 atom CD2 / van der Waals contact distance, MASP-2 HIS 483 atom NE2 / van der Waals contact distance, SER 654 C to compound atom / van der Waals contact distance, SER 654 O to compound atom / van der Waals contact distance, TRP 655 C to compound atom / van der Waals contact distance, MASP-2 GLY 528 atom CA / van der Waals contact distance TRP 655 atom CZ3 / van der Waals contact distance TRP 655 atom N / van der Waals contact distance TRP 655 atom CE3 / van der Waals contact distance GLY 656 atom C / van der Waals contact distance GLY 656 atom CA / van der Waals contact distance GLY 656 atom O / van der Waals contact distance, MASP-2 TYR 607 atom CD1 / van der Waals contact distance, MASP-2 PRO 606 atom O / d(C3,CA1) / d(CA1,N1)2 / d(H4,O1) / d(H4,O2) / d(O1,O2) / d(CA1,O2) / d(CA6,O1) / d(CA6,O2) / d(CA1,C5) / d(O2,H3) / d(N2,C2) / d(CA5,N2) / d(N2,C4) / d(N2,C6) / d(N2,CA3) / d(N2,O3) / d(O4,H2): unit not given beside the values
Conditions: for H-bond distance to MASP-2 ASP 627 atom OD2 / H-bond distance to MASP-2 GLY 656 atom N / H-bond distance to MASP-2 GLY 656 atom O / H-bond distance to MASP-2 SER 628 atom O / H-bond distance to MASP-2 SER 654 atom O / H-bond distance to MASP-2 SER 657 atom O: Table A1 (H-Bonds); for H-bond distance to MASP-2 ASP 627 atom OD2: ASP 627 OD2; for H-bond distance to MASP-2 GLY 656 atom N: GLY 656 N; for H-bond distance to MASP-2 GLY 656 atom O: GLY 656 O; for H-bond distance to MASP-2 SER 628 atom O: SER 628 O; for H-bond distance to MASP-2 SER 654 atom O: SER 654 O; for H-bond distance to MASP-2 SER 657 atom O: SER 657 O; for van der Waals contact distance, MASP-2 HIS 483 atom CD2 / van der Waals contact distance, MASP-2 HIS 483 atom NE2: Table A2-1; for van der Waals contact distance, MASP-2 GLY 528 atom CA: Table A2-2; for van der Waals contact distance, VAL 653 CG1 to compound atom: Table A2-11; for van der Waals contact distance TRP 655 atom CE3 / van der Waals contact distance TRP 655 atom CZ3: Table A2-13; for van der Waals contact distance TRP 655 atom CE3: MASP-2 TRP 655 CE3, compound atom in line below; for van der Waals contact distance TRP 655 atom CZ3: MASP-2 TRP 655 CZ3; for Ligand-pharmacophore element distance, pharmacophore element C2 / Ligand-pharmacophore element distance, pharmacophore element C3 / Ligand-pharmacophore element distance, pharmacophore element C4 / Ligand-pharmacophore element distance, pharmacophore element C5 / Ligand-pharmacophore element distance, pharmacophore element C6 / Ligand-pharmacophore element distance, pharmacophore element C7 / Ligand-pharmacophore element distance, pharmacophore element CA1 / Ligand-pharmacophore element distance, pharmacophore element CA2 / Ligand-pharmacophore element distance, pharmacophore element CA3 / Ligand-pharmacophore element distance, pharmacophore element CA4 / Ligand-pharmacophore element distance, pharmacophore element CA5 / Ligand-pharmacophore element distance, pharmacophore element CA6: Table A4-1; for d(C3,CA1) / d(CA1,N1)2 / d(CA1,O1) / d(CA1,O2) / d(H4,O1) / d(H4,O2) / d(O1,O2): Table A5-1 pharmacophore: distance between elements, S2/S1 region; for a(C3, CA1, O1) / a(CA1, O1, O2) / a(O1, O2, H4) / a(N1, CA1, O1) b): Table A6-1 pharmacophore angle; for a(N1, CA1, O1) b): Methyl-amino-pyridine compounds; for a(O1, O2, H3) / a(O1, O2, N2) / a(O2, N2, CA2): Table A6-2 pharmacophore angle; for Pharmacophore torsion angle a(C3, CA1, O1, H4) / Pharmacophore torsion angle a(H4, O1, O2, H3) / Pharmacophore torsion angle a(H4, O1, O2, N2) / Pharmacophore torsion angle a(N1, CA1, O1, H4) / Pharmacophore torsion angle a(O1, H4, O2, CA1): Table A7-1
Method in brief: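 Contacts and H-bonds come from partially refined soaked-crystal structures of recombinant human CCP2-SP made in E. coli, solved by molecular replacement against 1Q3X fragments. Where several ligand poses appeared, only one was analysed; listed nonbonded contacts may include possible H-bond pairings.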

[1] = Table A2-7: SER 628 (CB, O, OG)
[2] = Table A2 section before Table A2-8
[3] = Table A5-2 pharmacophore distance, S3/S4 region
[4] = between pharmacophore elements of the bound compound
[5] = Table A7-2, between pharmacophore elements of the bound compound

Chain of MASP-2 CCP2-SP (O00187 445-686): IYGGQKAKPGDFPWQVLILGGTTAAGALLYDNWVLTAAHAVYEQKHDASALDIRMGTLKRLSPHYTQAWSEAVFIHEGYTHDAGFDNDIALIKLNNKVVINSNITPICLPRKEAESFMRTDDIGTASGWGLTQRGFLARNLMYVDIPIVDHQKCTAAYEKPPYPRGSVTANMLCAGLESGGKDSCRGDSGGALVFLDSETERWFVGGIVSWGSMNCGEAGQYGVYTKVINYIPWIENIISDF
Chain of MASP-2 CCP2-SP (O00187 364-432 partner): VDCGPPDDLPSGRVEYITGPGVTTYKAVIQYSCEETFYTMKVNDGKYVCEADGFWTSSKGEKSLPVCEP

## Cc1nc(N)ccc1CNC(=O)[C@H](C)NC(=O)[C@H]1C[C@H](Cc2ccccc2Br)CN1 [compound 1372, (2R,4S)—N—((S)-1-(((6-Amino-2-methylpyridin-3-yl)methyl)amino)-1-oxopropan-2-yl)-4-(2-bromobenzyl)pyrrolidine-2-carboxamide Di-trifluoroacetate salt]
  H-bond distance to MASP-2 ASP 627 atom OD2: 3.17
  H-bond distance to MASP-2 GLY 656 atom N: 3.23
  H-bond distance to MASP-2 GLY 656 atom O: 2.81
  H-bond distance to MASP-2 SER 628 atom O: 3.18
  H-bond distance to MASP-2 SER 654 atom O: 2.97
  H-bond distance to MASP-2 SER 657 atom O: 2.87
  van der Waals contact distance, MASP-2 HIS 483 atom CD2: 3.77
  van der Waals contact distance, MASP-2 HIS 483 atom NE2: 3.67
  van der Waals contact distance, MASP-2 GLY 528 atom CA: 3.83
  van der Waals contact distance, VAL 653 CG1 to compound atom: 3.32
  van der Waals contact distance TRP 655 atom CE3: 3.54
  van der Waals contact distance TRP 655 atom CZ3: 3.48
Table A2-4
  van der Waals contact distance, MASP-2 TYR 607 atom CD1: 3.77
[1]
  van der Waals contact distance, MASP-2 amino acid atom to compound atom: 3.68
Table A2-12
  van der Waals contact distance, TRP 655 CA to compound atom: 3.48

## Cc1nc(N)ccc1CNC(=O)[C@H](C)NC(=O)[C@H]1C[C@H](Cc2ccccc2-c2ccccc2)CN1 [compound 1373, (2R,4S)-4-([1,1′-Biphenyl]-2-ylmethyl)-N—((S)-1-(((6-amino-2-methylpyridin-3-yl)methyl)amino)-1-oxopropan-2-yl)pyrrolidine-2-carboxamide Di-trifluoroacetate salt]
  H-bond distance to MASP-2 ASP 627 atom OD2: 3.21
  H-bond distance to MASP-2 GLY 656 atom N: 3.2
  H-bond distance to MASP-2 GLY 656 atom O: 2.76
  H-bond distance to MASP-2 SER 628 atom O: 3.18
  H-bond distance to MASP-2 SER 654 atom O: 3.04
  H-bond distance to MASP-2 SER 657 atom O: 2.89
  van der Waals contact distance, MASP-2 HIS 483 atom CD2: 3.71
  van der Waals contact distance, MASP-2 HIS 483 atom NE2: 3.62
  van der Waals contact distance, MASP-2 GLY 528 atom CA: 3.79
  van der Waals contact distance, VAL 653 CG1 to compound atom: 3.34
  van der Waals contact distance TRP 655 atom CE3: 3.65
  van der Waals contact distance TRP 655 atom CZ3: 3.57
  Ligand-pharmacophore element distance, pharmacophore element C2: 0
  Ligand-pharmacophore element distance, pharmacophore element C3: 0.08
  Ligand-pharmacophore element distance, pharmacophore element C4: 0
  Ligand-pharmacophore element distance, pharmacophore element C5: 0
  Ligand-pharmacophore element distance, pharmacophore element C6: 0
  Ligand-pharmacophore element distance, pharmacophore element C7: 0
  Ligand-pharmacophore element distance, pharmacophore element CA1: 0.56
  Ligand-pharmacophore element distance, pharmacophore element CA2: 0.54
  Ligand-pharmacophore element distance, pharmacophore element CA3: 0
  Ligand-pharmacophore element distance, pharmacophore element CA4: 0
  Ligand-pharmacophore element distance, pharmacophore element CA5: 2.5
  Ligand-pharmacophore element distance, pharmacophore element CA6: 0
  d(C3,CA1): 2.85
  d(CA1,N1)2: 1.37
  d(CA1,O1): 4.41
  d(CA1,O2): 3.86
  d(H4,O1): 4.40
  d(H4,O2): 3.78
  d(O1,O2): 3.38
  a(C3, CA1, O1): 149.81
  a(CA1, O1, O2): 105.28
  a(O1, O2, H4): 131.90
  a(N1, CA1, O1) b): 174.08
  a(O1, O2, H3): 147.32
  a(O1, O2, N2): 141.07
  a(O2, N2, CA2): 156.78
[1]
  van der Waals contact distance, MASP-2 amino acid atom to compound atom: 3.64
Table A2-12
  van der Waals contact distance, SER 654 O to compound atom: 3.83
  van der Waals contact distance, TRP 655 CA to compound atom: 3.44
[2]
  van der Waals contact distance, MASP-2 amino acid atom to compound atom: 3.83
[3]
  d(CA5,N2): 6.60
  d(N2,CA2): 6.03
  d(O2,H3): 4.31
  d(O2,N2): 2.65
[4]
  Pharmacophore torsion angle a(C3, CA1, O1, H4): 25.67
  Pharmacophore torsion angle a(H4, O1, O2, H3): 50.98
  Pharmacophore torsion angle a(H4, O1, O2, N2): 139.02
  Pharmacophore torsion angle a(N1, CA1, O1, H4): 4.28
  Pharmacophore torsion angle a(O1, H4, O2, CA1): −84.42
[5]
  Pharmacophore torsion angle a(O1, O2, N2, CA2): 127.58
  Pharmacophore torsion angle a(O1, O2, N2, CA5): 91.76

## Cc1nc(N)ccc1CNC(=O)[C@H](C)NC(=O)[C@H]1C[C@H](Cc2cc(-c3ccccc3)cs2)CN1 [compound 1399, (2R,4R)—N—((S)-1-(((6-Amino-2-methylpyridin-3-yl)methyl)amino)-1-oxopropan-2-yl)-4-((4-phenylthiophen-2-yl)methyl)pyrrolidine-2-carboxamide Dihydrochloride]
  H-bond distance to MASP-2 ASP 627 atom OD2: 3.26
  H-bond distance to MASP-2 GLY 656 atom N: 3.21
  H-bond distance to MASP-2 GLY 656 atom O: 2.75
  H-bond distance to MASP-2 SER 628 atom O: 3.15
  H-bond distance to MASP-2 SER 654 atom O: 3.04
  H-bond distance to MASP-2 SER 657 atom O: 2.86
  van der Waals contact distance, MASP-2 HIS 483 atom CD2: 3.72
  van der Waals contact distance, MASP-2 HIS 483 atom NE2: 3.6
  van der Waals contact distance, VAL 653 CG1 to compound atom: 3.32
  van der Waals contact distance TRP 655 atom CZ3: 3.42
  Ligand-pharmacophore element distance, pharmacophore element C2: 0
  Ligand-pharmacophore element distance, pharmacophore element C3: 0.14
  Ligand-pharmacophore element distance, pharmacophore element C4: 0
  Ligand-pharmacophore element distance, pharmacophore element C5: 0
  Ligand-pharmacophore element distance, pharmacophore element C6: 0
  Ligand-pharmacophore element distance, pharmacophore element C7: 0
  Ligand-pharmacophore element distance, pharmacophore element CA1: 0.59
  Ligand-pharmacophore element distance, pharmacophore element CA2: 0.85
  Ligand-pharmacophore element distance, pharmacophore element CA3: 0
  Ligand-pharmacophore element distance, pharmacophore element CA4: 2.39
  Ligand-pharmacophore element distance, pharmacophore element CA5: 0
  Ligand-pharmacophore element distance, pharmacophore element CA6: 0
  d(C3,CA1): 2.86
  d(CA1,N1)2: 1.38
  d(CA1,O1): 4.40
  d(CA1,O2): 3.92
  d(H4,O1): 4.40
  d(H4,O2): 3.82
  d(O1,O2): 3.33
  a(C3, CA1, O1): 149.86
  a(CA1, O1, O2): 105.80
  a(O1, O2, H4): 132.84
  a(N1, CA1, O1) b): 173.87
  a(O1, O2, H3): 145.77
  a(O1, O2, N2): 143.45
  a(O2, N2, CA2): 157.06
Table A2
  van der Waals contact distance, MASP-2 amino acid atom to compound atom: 3.7
Table A2-3
  van der Waals contact distance, MASP-2 PHE 529 atom CD2: 3.85
  van der Waals contact distance, MASP-2 PHE 529 atom CE2: 3.7
[1]
  van der Waals contact distance, MASP-2 amino acid atom to compound atom: 3.61
Table A2-12
  van der Waals contact distance, TRP 655 CA to compound atom: 3.43
[2]
  van der Waals contact distance, MASP-2 amino acid atom to compound atom: 3.81
[3]
  d(N2,CA2): 5.96
  d(O2,H3): 4.09
  d(O2,N2): 2.67
[4]
  Pharmacophore torsion angle a(C3, CA1, O1, H4): 24.20
  Pharmacophore torsion angle a(H4, O1, O2, H3): 50.25
  Pharmacophore torsion angle a(H4, O1, O2, N2): 142.63
  Pharmacophore torsion angle a(N1, CA1, O1, H4): 0.87
  Pharmacophore torsion angle a(O1, H4, O2, CA1): −83.35
[5]
  Pharmacophore torsion angle a(O1, O2, N2, CA2): 126.87
  Pharmacophore torsion angle a(O1, O2, N2, CA4): 113.10
